One series concerns mdm2. Kind of series: Antisense example: inhibition of ribosomal synthesis of mdm2 in JAR cells, western blotting. As to conditions: 15 h. It counts as cell-based, human. On the procedure: The following antisense example is presented for illustrative purposes only and should not be interpreted as a restriction to the present invention.
JAR cells (ATCC catalog #HTB-144) were grown in RPMI-1640 medium supplemented with 10% FBS and 1% penicillin-streptomycin at 37° C. and 5% CO2. Cells were then seeded into each well of a 12-well plate containing 1 ml of the same medium, and treated with an aliquot of an aqueous stock solution of Oligo 9 or […] of a designated concentration. Then the cells were incubated at 37° C. and 5% CO2 for 15 h.
The cells in each well were washed with cold PBS and treated with 80 μl RIPA buffer containing 1% protease inhibitors cocktail, and the plate was incubated at 4° C. and agitated slowly for 15 min. The content of each well was scraped out into a microtube. The microtube was incubated in ice for 10 min and centrifuged at 10,000 g. The resulting supernatant was collected and subjected to protein quantification by Bradford assay and western blot analysis. For electrophoresis, 20 μg of protein was loaded onto each lane of the gel in a minigel apparatus, separated and transferred onto a PVDF membrane (0.45μ, Millipore). The primary mdm2 antibody used for western blotting was SC-965 (Santa Cruz Biotechnology).
FIG. 9 provides western blotting results for JAR cells treated with 5 μM or 10 μM Oligo 9, 5 μM or 10 μM Oligo 10, cotreatment with the oligomers at 5 μM or 10 μM each, and blank (no oligomer treatment).
For orientation: A western blot detects proteins with antibodies after separation by electrophoresis.

For a further series, the system named is complementary DNA. Kind of series: Binding affinity for DNA: Tm between PNA and complementary DNA (UV absorbance at 260 nm). To be noted: 4 μM PNA oligomer and 4 μM DNA, aq buffer pH 7.16, 10 mM sodium phosphate, 100 mM NaCl. The method, then: (§1) PNA oligomers of this invention were evaluated for their binding affinity for DNA by measuring Tm values as follows.
(§2) 4 μM PNA oligomer and 4 μM DNA were mixed in aq buffer (pH 7.16, 10 mM sodium phosphate, 100 mM NaCl), and incubated at 90° C. for a few minutes and slowly cooled down to RT. Then the solution was transferred into a 4 ml quartz cuvette and the cuvette was tightly sealed. The cuvette was mounted on an Agilent 8453 UV/Visible spectrophotometer and absorbance changes at 260 nm were recorded with increasing the temperature of the cuvette by either 0.5 or 1.0° C. per minute. From the absorbance vs temperature curve, the temperature showing the largest increase rate in absorbance was read out as the melting temperature Tm between PNA and DNA. DNAs for Tm measurement were purchased either from Bioneer, Inc. (www.bioneer.com, Daejon, South Korea) or from Ahram Biosystems (www.ahrambio.com, Seoul, South Korea), and used without further purification.
(§3) FIG. 3 provides graphs of absorbance changes with temperature for Oligo 17 against complementary or mismatch DNA. For sequences of the mismatch DNAs against Oligo 17, refer to Table 2. In FIG. 3, there is a transition temperature in each curve, which was read out as the Tm value for the curve.
(§4) Tm values are provided in Table 2 for PNA oligomers of this invention. These Tm values are presented for illustrative purposes only and should not be interpreted as a restriction to this invention.

The next series concerns HeLa cells. Kind of series: Cell penetration of fluorescein-tagged PNA oligomers, confocal fluorescence microscopy. It is filed as cell-based, human. The method, then:
(§5) In order to evaluate the cell penetration ability of PNA oligomers of this invention, cancer cells of human origin were treated with PNA oligomers covalently tagged with fluorescein. The applied method is provided in brief as follows.
(§6) To each cover glass (autoclaved) placed in each well of a 24-well plate, were seeded 20,000˜100,000 cells depending on the growth rate of the cell line used, and the cells were cultured at 37° C. and 5% CO2 for 16 to 24 h. Then the medium was replaced with 500 μl fresh Opti-MEM medium (with or without 1% FBS), to which was added an aliquot of aq stock solution of a PNA oligomer covalently tagged with fluorescein. After cells were cultured for a designated interval, the cells were washed with PBS, and fixed by incubating in 3.7% or 4% paraformaldehyde. The cells were thoroughly washed several times with PBS or PBS containing 0.1% Tween-20. Then the cover glass was mounted onto a slide glass using a drop of mounting solution and sealed with nail polish for confocal fluorescence microscopy. Fluorescence images were taken either on a Zeiss LSM 510 confocal microscope (Germany) at 63× objective or on a Nikon C1Si confocal microscope at 40× objective.

Another series concerns A549 cells. The series is described as above. As to conditions: 2 μM, 24 h, without FBS, 40× objective. It is filed as cell-based, human. On the procedure:
as §5, §6

A further series concerns JAR cells. The series is described as above. To be noted: 2 μM, 24 h, without FBS, 40× objective. It is filed as cell-based, human. On the procedure:
as §5, §6

In a further series the test system is mismatch DNA. Description: Binding affinity for DNA: Tm between PNA and mismatch DNA (UV absorbance at 260 nm). To be noted: for decreases in Tm with single base mismatches: single base mismatch versus complementary DNA. On the procedure:
as §1, §2, §3, §4

[1] abbreviates: 5 μM, 1, 2, 3 and 24 h, without FBS, 63× objective.

Where “and” joins values, the source holds several entries; their conditions need not be identical. Equal entries are not always repeated. {Fam-L(2)} = N-terminal fluorescein (Fam) label attached through linker L(2); {L(1)} = linker L(1) as defined below the publication's; {Fam} = fluorescein (FAM) label at the N-terminus; {Lys-NH2} = C-terminal lysine amide

This is an account of results in US8680253B2 (OliPass Corporation, priority 2008, dated 2014).

As to “GC(1O2)A-C(1O2)AT-TTG-C(1O2)CT-NH2 (GCACATTTGCCT; chemistry not fully specified) [Oligo 10, modified PNA oligomer]”, the “inhibition of ribosomal synthesis of mdm2” value with mdm2 (5 μM) and in the series with mdm2 (10 μM) was “significantly inhibited” throughout. As for “Fam-L(2)-CA(5)T-A(4g)GT-A(4g)TA(5)-AGT-Lys-NH2 (CATAGTATAAGT; Fam-L(2) label, modified PNA, Lys-NH2, chemistry not fully specified) [Oligo 24, fluorescein-tagged modified PNA oligomer]”, in the series on complementary DNA, the “Tm between PNA and complementary DNA” value came out at 70 °C.

Turning to “Fam-L(2)-TGG-CAA-CTG-AT-Lys-NH2 (TGGCAACTGAT; all peptide nucleic acid (PNA), 5' {Fam-L(2)}, 3' {Lys-NH2}) [Oligo 28, fluorescein-tagged 'unmodified' PNA oligomer, reference compound]”, the “cell penetration, fluorescence intensity” value was “no significant fluorescence intensity” in the series with HeLa cells (2 μM, 12 h, without FBS, 40× objective); “no significant fluorescence intensity” in the series on A549 cells; “no significant fluorescence intensity” in the series on JAR cells. Turning to “CA(7)T-A(7)GT-A(7)TA-A(7)GT-NH2 (CATAGTATAAGT; chemistry not fully specified) [Oligo 15, modified PNA oligomer]”, in the series with complementary DNA, the “Tm between PNA and complementary DNA” value was 71 °C. Same read-out and setting: as for “CA(2O2)T-A(2O2)GT-A(2O2)TA-A(2O2)GT-NH2 (CATAGTATAAGT; chemistry not fully specified) [Oligo 18, modified PNA oligomer]”, the figure is 66 °C. Same read-out and setting: as for “TGC-TAC-TAC-TG-Lys-NH2 (TGCTACTACTG; all peptide nucleic acid (PNA), 3' {Lys-NH2}) [Oligo 5, unmodified PNA oligomer, reference compound]”, the figure is 55 °C; as for “CA(5)T-A(5)GT-A(5)TA-A(5)GT-NH2 (CATAGTATAAGT; chemistry not fully specified) [Oligo 14, modified PNA oligomer]”, 69 °C. On to “CA(5)T-A(5)GT-A(5)TA-A(5)GT-Lys-NH2 (CATAGTATAAGT; modified PNA, C-terminal Lys-NH2, chemistry not fully specified) [Oligo 17, modified PNA oligomer]”, for which the “Tm between PNA and complementary DNA” value with complementary DNA turned out to be 72 °C. For the same substance, the “Tm between PNA and mismatch DNA” value came to 59 °C in the series with mismatch DNA (mismatch (T → A), DNA ACT-TAA-ACT-ATG); 61 °C in the series with mismatch DNA (mismatch (T → C), DNA ACT-TAC-ACT-ATG); 58 °C with mismatch DNA (mismatch (T → G), DNA ACT-TAG-ACT-ATG). Moreover, the “decreases in Tm with single base mismatches” value with mismatch DNA was 11˜14 °C. As for “CA(4)T-A(4)GT-A(4)TA-A(4)GT-NH2 (CATAGTATAAGT; PNA-like chain with modified monomers A(5)/A(4), C-terminal amide, codes undefined, further chemistry not given here) [Oligo 13, modified PNA oligomer]”, the “Tm between PNA and complementary DNA” value in the series with complementary DNA worked out at 64 °C.

For “TGC-TAC(1O3)-TAC-TG-Lys-NH2 (TGCTACTACTG; modified PNA, monomer codes such as C(1O3), A(5) undefined, C-terminal Lys-NH2, further chemistry not given here) [Oligo 4, modified PNA oligomer]”, in the series with complementary DNA, the “Tm between PNA and complementary DNA” value was determined as 61 °C.

On to “TG(5)G-C(1O2)AA-C(1O2)TG-A(5)T-Lys-NH2 (TGGCAACTGAT; modified PNA, C-terminal Lys-NH2, chemistry not fully specified) [Oligo 20, modified PNA oligomer]”, for which the “Tm between PNA and complementary DNA” value with complementary DNA stood at 84 °C. In addition, the “Tm between PNA and mismatch DNA” value in the series with mismatch DNA (mismatch (G → A), DNA ATC-AAT-TGC-CA) turned out to be 65 °C; in the series with mismatch DNA (mismatch (G → T), DNA ATC-ATT-TGC-CA), 62 °C. Moreover, in the series on mismatch DNA, the “decreases in Tm with single base mismatches” value was 19˜22 °C. As to “TGC(1O3)-TAC-TAC(1O3)-TG-Lys-NH2 (TGCTACTACTG; modified PNA, C-terminal Lys-NH2, chemistry not fully specified) [Oligo 3, modified PNA oligomer]”, the “Tm between PNA and complementary DNA” value in the series on complementary DNA came to 65 °C. As for “CA(3)T-A(3)GT-A(3)TA-A(3)GT-NH2 (CATAGTATAAGT; chemistry not fully specified) [Oligo 12]”, the “Tm between PNA and complementary DNA” value in the series with complementary DNA is 60 °C. In the case of “GC(2O2)A-C(2O2)AT-TTG-C(2O2)CT-NH2 (GCACATTTGCCT; chemistry not fully specified) [Oligo 9]”, the “inhibition of ribosomal synthesis of mdm2” value in the series on mdm2 (5 μM) and in the series with mdm2 (10 μM) was “significantly inhibited” in each case. As to “Fam-L(1)L(1)-TGC-TAC-TAC-TG-Lys-NH2 (TGCTACTACTG; all peptide nucleic acid (PNA), 5' {Fam}-{L(1)}-{L(1)}, 3' {Lys-NH2}) [Oligo 2, fluorescein-tagged 'unmodified' PNA oligomer, reference compound]”, in the series on HeLa cells (setting [1]), the “cell penetration, fluorescence intensity” value was “fluorescence intensity is faint”. For “CAT-AGT-ATA-AGT-NH2 (CATAGTATAAGT; chemistry not fully specified) [Oligo 27, unmodified PNA oligomer, reference compound]”, the “Tm between PNA and complementary DNA” value in the series on complementary DNA came out at 55 °C. Still for that read-out and setting: as for “GCA-CAT-TTG-CCT-Lys-NH2 (GCACATTTGCCT; all peptide nucleic acid (PNA), 3' {Lys-NH2}) [Oligo 11, unmodified PNA oligomer, reference compound]”, the figure is 58 °C and 59 °C. With “Fam-L(1)L(1)-TGC(1O3)-TAC(1O3)-TAC(1O3)-TG-Lys-NH2 (TGCTACTACTG; Fam-L(1)L(1) N-term, Lys-NH2, modified PNA, chemistry not fully specified) [Oligo 1, fluorescein-tagged modified PNA oligomer]”, the “cell penetration, fluorescence intensity” value in the series on HeLa cells (1 μM, 6 or 24 h, with 1% FBS, 40× objective) was “fluorescence intensity is faint even at 24 h”; in the series on HeLa cells (setting [1]) it was “fluorescence intensity is clear and becomes intense over 24 h”.

Regarding “TGC(2O2)-TAC-TAC(2O2)-TG-Lys-NH2 (TGCTACTACTG; modified PNA, monomer codes such as C(1O3), A(5) undefined, C-terminal Lys-NH2, further chemistry not given here) [Oligo 8, modified PNA oligomer]”, the “Tm between PNA and complementary DNA” value in the series with complementary DNA was found to be 68 °C. On the same count and under the same terms, as for “CAT-AGT-ATA-AGT-Lys-NH2 (CATAGTATAAGT; all peptide nucleic acid (PNA), 3' {Lys-NH2}) [Oligo 16, unmodified PNA oligomer, reference compound]”, the figure is 56 °C.
